These results are taken from patent US6677309B1, “Anti-cancer drug aldehyde conjugate drugs with enhanced cytotoxicity compounds, compositions and methods” (University Technology Corporation, priority 1997, dated 2004).

Read-outs that look alike come from different tables or passages of the source.

The subject of one data set is LNCaP. Briefly: Prostate cancer cell cytotoxicity, crystal violet assay, LNCaP. The following applies: 3 h drug, 4 days growth. Type of data set: cell-based, human. As for the experimental part: (§1) Toxicity to the three prostate cancer cell lines, LNCaP, DU-145, and PC-3 were measured in two different media, RPMI-1640 and DMEM (Dulbecco's Modified Eagle Medium), both supplemented with 10% fetal bovine serum.
(§2) Cell lines were maintained in vitro in RPMI 1640 media or DMEM, each supplemented with 10% fetal bovine serum, 2 mM L-glutamine, 10 mM HEPES buffer, penicillin (100 units/mL) and streptomycin (100 μg/mL).
(§3) Cells were dissociated with trypsin/EDTA, counted, and suspended in growth media (RPMI or DMEM) to a concentration of 5.6×10^3 cells/mL. Cell suspensions were dispensed in 180 μL aliquots into 96-well tissue culture plates. […] Each 100× solution was diluted 10× in growth media (RPMI or DMEM), and a 20 μL aliquot of the resulting 10× solution was immediately (<10s) added to-the appropriate lane. Additionally, one lane was treated with 20 μL of 10% DMSO in growth media (no drug) and one lane was treated with 200 μL of 1.5 M Tris buffer (no cells). The cells were incubated with the drugs for 3 h at 37° C. The drug solutions were then removed and replaced with 200 μL of fresh media. The cells were incubated for 4 days (7 days for PC-3 cells in DMEM) at 37° C. in a humidified atmosphere of 5% CO2 and 95% air. Cell survival was determined using a crystal violet assay as described earlier (Fenick, D. J. et al (1997) J. Med. Chem. 40: 2452-2461).

For another data set, the system named is DU-145. Briefly: Prostate cancer cell cytotoxicity, crystal violet assay, DU-145. Type of data set: cell-based, human. The settings on record: 3 h drug, 4 days growth. As for the experimental part: as §1, §2, §3
The test system of a further data set is MCF-7 cells. In words: In vitro cytotoxicity, colony formation by crystal violet assay, MCF-7. The following applies: for fold less toxic than the next conjugate: EPIF versus DAUNF, DAUNF versus DOXF, both sensitive (MCF-7) and resistant (MCF-7/ADR) breast cancer cells. As for the experimental part:
(§4) The term IC50 as used herein refers to the concentration of drug which inhibits cell growth by 50%, i.e., 50% of cells are viable at the IC50 concentration relative to a no-drug control.
(§5) Cells were incubated with drug for 3 h in RPMI (Roswell Park Memorial Institute) 1640 media containing 10% fetal bovine serum and 1% DMSO. Plates, were developed using the crystal violet assay. […] In all cases percent survival was determined by the extent of colony formation six days after drug treatment.
(§6) All tissue culture materials were obtained from Gibco Life Technologies (Grand Island, N.Y.) unless otherwise stated. MCF-7 breast cancer cells were obtained from American Type Culture Collection (Rockville, Md.). […] Both cell lines were maintained in vitro by serial culture in phenol red-free RPMI Media 1640 supplemented with 10% fetal bovine serum (Gemini Bio-Products, Calbasas, Calif.), L-glutamine (2 mM), HEPES buffer (10 mM), penicillin (100 units/mL), and streptomycin (100 μg/mL). […] Cells were maintained at 37° C. in a humidified atmosphere of 5% CO2 and 95% air.
(§7) Cells were dissociated with trypsin-EDTA, counted, and suspended in growth media to a concentration of 5×10^3 cells/mL. Cell suspensions were dispensed in 200 μL aliquots into 96-well tissue culture plates. Plates were then incubated for 24 h at 37° C. in a humidified atmosphere of 5% CO2 and 95% air. The media was replaced with 180 μL of growth media prior to addition of the cytotoxic agents.
(§8) Concentrations were then corrected by measuring the solution absorbance at 480 nm (ε=11,500/mole anthracycline). The solutions were then serially diluted in DMSO to give a series of 100× working concentration solutions. For each concentration, the 100× solution was diluted 1:10 in serum-free RPMI Media 1640. 20 μL of the resulting […] solution was immediately added to the appropriate lane. Additionally, one lane was treated with 20 μL of 10% DMSO in serum-free RPMI (no drug) and one lane replaced with 200 μL of 1.5 M Tris buffer (no cells). The cells were incubated at 37° C. for 3 h. The drug solutions were removed and 200 μL of fresh growth media was added to each well.
(§9) The extent of colony formation was determined by use of a crystal violet staining assay (Gilles, R. J. et al. (1986), “Determination of cell number in monolayer cultures,” Anal. Biochem. 159:109-113; Reile, H. et al. (1990), “Computerized determination of growth kinetic curves and doubling times from cells in microcultures,” Anal. Biochem. 187:262-267). […] The cells were then stained with 75 μL of 0.1% crystal violet in deionized water for 30 min. […] The plates were blotted dry and 200 μL of 70% ethanol in water was added to each well to solublize the dye. The plates were stored at 4° C. until solubilization was complete (about 4 h). The optical density of each well was measured on an ELISA plate reader at 588 nm. Relative colony sizes were determined by comparison of the drug treated lanes to the control lanes.
(§10) MCF-7 breast cancer cells were obtained from American Type Culture Collection (Rockville, Md.). MCF-7/ADR adriamycin resistant breast cancer cells were a gift of Dr. William W. Wells (Michigan State University). Both cell lines were maintained in vitro by serial culture in phenol red-free RPMI Media 1640 supplemented with 10% fetal bovine serum (Gemini Bio-Products, Calbasas, Calif.), L-glutamine (2 mM), HEPES buffer ([…]), penicillin (100 units/mL), and streptomycin (100 μg/mL). […] Cells were maintained at 37° C. in a humidified atmosphere of 5% CO2 and 95% air.
1640 media containing 10% fetal bovine serum. The resulting 90% media/10% DMSO solutions (v/v) were incubated at 37° C. for 6h.

A further data set concerns MCF-7/ADR cells. Briefly: In vitro cytotoxicity, colony formation by crystal violet assay, MCF-7/ADR. The following applies: for fold higher cytotoxicity against MCF-7/ADR cells relative to the parent drug: relative to the respective parent drug. As for the experimental part:
as §4, §5, §6, §7, §8, §9, §10
These were then diluted 10× with autoclaved Millipore water.

The nature of data set [1]: Hydrolysis in fetal bovine serum, HPLC. It is filed as in vitro ADME. The following applies: pH 8.1, in serum at 37° C., read-out: half-life of the equilibrium mixture with intermediate B with respect to formation of intermediates C and D.

In the case of `COc1cccc2c1C(=O)c1c(O)c3c(c(O)c1C2=O)C[C@@](O)(C(C)=O)C[C@@H]3O[C@H]1C[C@H]2[C@H](OCN2CN2CO[C@@H]3[C@H](C)O[C@@H](O[C@H]4C[C@](O)(C(C)=O)Cc5c(O)c6c(c(O)c54)C(=O)c4c(OC)cccc4C6=O)C[C@@H]32)[C@H](C)O1` [DAUNF, bis(3′-N-(3′-N,4′-O-methylenedaunorubicinyl))methane], the IC50 is 1.5 nM in the data set with LNCaP (DMEM with 10% fetal bovine serum, read-out: IC50 Values, LNCaP/DMEM (converted)); 3 nM with LNCaP (RPMI-1640 with 10% fetal bovine serum, read-out: IC50 Values, LNCaP/RPMI-1640 (converted)); 4 nM in the data set on DU-145 (DMEM with 10% fetal bovine serum, read-out: IC50 Values, DU-145/DMEM (converted)); 5 nM in the data set with DU-145 (RPMI-1640 with 10% fetal bovine serum, read-out: IC50 Values, DU-145/RPMI-1640 (converted)); 4 nM in the data set with MCF-7 cells (read-out: IC50 Values, MCF-7, 3 h drug incubation in RPMI 1640, 10% fetal bovine serum, 1% DMSO, colony formation six days after treatment, fresh drug solution); 5 nM in the data set on MCF-7/ADR cells (read-out: IC50 Values, MCF-7-ADR, 3 h drug incubation in RPMI 1640, 10% fetal bovine serum, 1% DMSO, colony formation six days after treatment, fresh drug solution). Further, the “fold less toxic than the next conjugate” value in the data set on MCF-7 cells was “approximately 7 fold”. Further, the “times more cytotoxic against the MCF-7 cell line than the parent drug” value in the data set on MCF-7 cells (relative to daunorubicin and doxorubicin, respectively) was 7 times. For the same compound, the “fold more toxic to MCF-7 cells than the parent drug” value with MCF-7 cells (relative to the respective parent drug) is reported as 7 fold. Further, in the data set with MCF-7/ADR cells, the “fold higher cytotoxicity against MCF-7/ADR cells relative to the parent drug” value was determined as 200 fold.
`COc1cccc2c1C(=O)c1c(O)c3c(c(O)c1C2=O)CC(O)(C(=O)CO)CC3OC1CC2C(OCN3CN2COC2C(C)OC(OC4C[C@](O)(C(=O)CO)Cc5c(O)c6c(c(O)c54)C(=O)c4c(OC)cccc4C6=O)CC23)C(C)O1` (stereo partly drawn) [EPIF]: in the data set on MCF-7 cells, the “fold less toxic than the next conjugate” value is given as “approximately 7 fold”. Further, the “IC50 fold higher than a fresh solution” value with MCF-7/ADR cells (MCF-7/ADR, after 20 h in 90% H2O/10% DMSO at 37° C. or 20 h in DMSO at ambient temperature) is reported as 5 fold. In the data set with MCF-7/ADR cells (MCF-7/ADR, hydrolysed equilibrium mixture), the “fold more toxic to resistant cells with respect to epidoxorubicin, conjugate in equilibrium with its hydrolysis products” value is given as “greater than 25 fold”. Moreover, the “fold higher cytotoxicity against MCF-7/ADR cells relative to the parent drug” value in the data set on MCF-7/ADR cells is “greater than 120 fold”. The half-life at 25 µM in data set [1] is at least 2 h.
